# From US20060089395A1, “Nf-kb activation inhibitors” (priority 2002, published 2006)
# Read-outs that look alike come from different tables or passages of the source.
# Test system: NF-κ B
# Experiment: Inhibitory activity of NF-κ B activation, luciferase reporter assay in HepG2 under TNF-α stimulation
# Type: cell-based, human
# Details: for inhibition at 1 µg/mL / inhibition at 10 µg/mL / inhibition at 0.1 µg/mL: Homo sapiens; for inhibition at 0.1 µg/mL: 0.1 μg/ml, read-out: Inhibitory Ratio of NF-κB Activation (%) 0.1 μg/ml
# Method: Using a transfection reagent(Effectene; QIAGEN), the human hepatoma cell strain HepG2 was transfected with a plasmid(pNF κ B-Luc Reporter Plasmid; […]) which is integrated with an oligonucleotide having five tandem copies of NF-κ B binding sequences([…]) on a upstream region of firefly luciferase gene(Luc) according to the QIAGEN's protocol, and the cells were incubated for 6 to 24 hours. After the addition of TNF-α (40 ng/ml) in the presence or absence of a test compound, the cells were incubated for 4 hours, and intracellular luciferase activity was measured by using PicaGene LT (TOYO INK MFG Co., Ltd.) and a chemical luminescence measurement apparatus ([…]luor Plus; TECAN). The inhibitory ratio was measured as a ratio relative to the value of a luciferase activity in the absence of the test compound.
# [1] = 1 μg/mL, HepG2, TNF-α (40 ng/ml), 4 hours
# [2] = 10 μg/mL, HepG2, TNF-α (40 ng/ml), 4 hours
# [3] = 1 μg/mL, HepG2, TNF-α (40 ng/ml), 4 hours, read-out: Inhibitory Ratio of NF-κ B Activation(%) Drug Concentration 1 μg/mL
# [4] = 10 μg/mL, HepG2, TNF-α (40 ng/ml), 4 hours, read-out: Inhibitory Ratio of NF-κ B Activation(%) Drug Concentration 10 μg/mL
# [5] = HepG2, 4 h, comparison table, reporter assay
# [6] = HepG2, 4 h, 1 μg/ml, comparison table, reporter assay, read-out: Inhibitory Ratio of NF-κB Activation (%) 1 μg/ml
# [7] = HepG2, 4 h, 10 μg/ml, comparison table, reporter assay, read-out: Inhibitory Ratio of NF-κB Activation (%) 10 μg/ml
SMILES,Inhibitory Ratio of NF-κ B Activation(%) Drug Concentration 1 μg/mL [1] [%],Inhibitory Ratio of NF-κ B Activation(%) Drug Concentration 10 μg/mL [2] [%],other results
CON=C(C)c1ccc(O)c(C(=O)Nc2cc(C(F)(F)F)cc(C(F)(F)F)c2)c1 [Compound No. 14],94.7,98.3,
Cc1nc(NC(=O)c2cc(Br)ccc2O)sc1C [Compound No. 191],,67.2,
O=C(Nc1cc(C(F)(F)F)cc(C(F)(F)F)c1)c1cc(NC(=S)Nc2ccccc2)ccc1O [Compound No. 47],51.8,97.2,
O=C(Nc1cc(C(F)(F)F)cc(C(F)(F)F)c1)c1cc(N=Nc2ccc([N+](=O)[O-])cc2)ccc1O [Compound No. 48],96.2,98.7,
O=C(Nc1cc(C(F)(F)F)cc(C(F)(F)F)c1)c1cc(C(F)(F)C(F)(F)F)ccc1O [Compound No. 26],93.3,95.4,
COc1cc(NC(=O)c2cc(Br)ccc2O)cc(OC)c1 [Compound No. 143],38.3,96.8,
O=C(Nc1cc(F)ccc1F)c1cc(Cl)ccc1O [Compound No. 179],92.5,93.4,
"Cc1nc(-c2ccc(O)c(C(=O)Nc3cc(C(F)(F)F)cc(C(F)(F)F)c3)c2)cs1 [Compound No. 30, N-[3,5-Bis(trifluoromethyl)phenyl]-2-hydroxy-5-(2-methylthiazol-4-yl)benzamide]",,,inhibition at 1 µg/mL [3]: 82.1%; inhibition at 10 µg/mL [4]: 95.3%
N#Cc1ccc(Oc2ccc(C(F)(F)F)cc2NC(=O)c2cc(Cl)ccc2O)cc1 [Compound No. 252],93.9,96.3,
Cc1ccc(C(=O)C(C)(C)C)cc1NC(=O)c1cc(Cl)ccc1O [compound 166],94.1,96.4,
COc1cccc(C(=O)Nc2cc(C(F)(F)F)cc(C(F)(F)F)c2)c1O [Compound No. 59],41.9,94.7,
"O=C(Nc1cccc(C(F)(F)F)c1)c1cc(Br)ccc1O [drawing 560, reference compound]",,,inhibition at 0.1 µg/mL [5]: -20.9%; inhibition at 1 µg/mL [6]: 88%; inhibition at 10 µg/mL [7]: 89.6%
Cc1ccc(S(=O)(=O)c2ccc(Cl)c(NC(=O)c3cc(Cl)ccc3O)c2)cc1 [Compound No. 169],31.6,95.9,
O=C(Nc1cc(Cl)cc(Cl)c1)c1ccc(Cl)cc1O [Compound No. 129],,71.8,
CCC(C)(C)c1ccc(Oc2ccccc2)c(NC(=O)c2cc(Cl)ccc2O)c1 [Compound No. 164],97.6,98.3,
O=C(Nc1cc(C(F)(F)F)cc(C(F)(F)F)c1)c1ccc(F)cc1O [Compound No. 250],94.2,95.4,
CNC(=O)c1sc(NC(=O)c2cc(Br)ccc2O)nc1-c1ccccc1 [Compound No. 220],50.8,58.6,
O=C(Nc1cc(C(F)(F)F)cc(C(F)(F)F)c1)c1ccc(O)c(C(=O)Nc2cc(C(F)(F)F)cc(C(F)(F)F)c2)c1 [Compound No. 37],,94.5,
O=C(Nc1cc([N+](=O)[O-])cc([N+](=O)[O-])c1)c1cc(Br)ccc1O [Compound No. 133],91.0,95.6,
CCOC(=O)c1sc(NC(=O)c2cc(-c3ccc(F)cc3F)ccc2O)nc1-c1ccccc1 [Compound No. 227],31.8,90.3,
CC(C)CCOc1ccc(OCCC(C)C)c(NC(=O)c2cc(Cl)ccc2O)c1 [Compound No. 162],93.8,97.9,
COc1ccc(O)c(C(=O)Nc2cc(C(F)(F)F)ccc2Cl)c1 [Compound No. 101],17.7,82.0,

SMILES,Inhibitory Ratio of NF-κ B Activation(%) Drug Concentration 1 μg/mL [1] [%],Inhibitory Ratio of NF-κ B Activation(%) Drug Concentration 10 μg/mL [2] [%],other results
"CC(C)c1nc(NC(=O)c2cc(Br)ccc2O)sc1-c1ccccc1 [Compound No. 197, 5-Bromo-N-(4-isopropyl-5-phenylthiazol-2-yl)-2-hydroxybenzamide]",,,inhibition at 1 µg/mL [3]: 70.1%; inhibition at 10 µg/mL [4]: 96.1%
O=C(Nc1cc(Cl)cc(Cl)c1)c1cc2ccccc2cc1O [Compound No. 181],,95.1,
"CC(=O)c1ccc(O)c(C(=O)Nc2cc(C(F)(F)F)cc(C(F)(F)F)c2)c1 [Compound No. 12, 5-acetyl-N-[3,5-bis(trifluoromethyl)phenyl]-2-hydroxybenzamide]",,,inhibition at 1 µg/mL [3]: 86.3%; inhibition at 10 µg/mL [4]: 99.2%
O=C(Nc1cc(C(F)(F)F)cc(C(F)(F)F)c1)c1cccc(O)c1O [Compound No. 57],,91.9,
Cc1ccc(-c2ccccc2)cc1NC(=O)c1cc(Cl)ccc1O [Compound No. 172],93.7,96.4,
O=C(Nc1nc(-c2ccccc2)c(C(=O)NCCc2ccccc2)s1)c1cc(Br)ccc1O [Compound No. 223],33.3,60.4,
CCN(CC)S(=O)(=O)c1ccc(OC)c(NC(=O)c2cc(Cl)ccc2O)c1 [Compound No. 155],11.2,90.2,
COc1ccc(-n2cccc2)c(NC(=O)c2cc(Cl)ccc2O)c1 [Compound No. 167],76.4,98.7,
"O=C(Nc1cc(C(F)(F)F)ccc1C(F)(F)F)c1cc(Cl)ccc1O [Compound No.81, N-[2,5-bis(trifluoromethyl)phenyl]-5-chloro-2-hydroxybenzamide]",,,inhibition at 0.1 µg/mL [5]: 27%; inhibition at 1 µg/mL [6]: 95%; inhibition at 10 µg/mL [7]: 96.3%; inhibition at 1 µg/mL [3]: 95%; inhibition at 10 µg/mL [4]: 96.3%
O=C(Nc1nc(-c2ccccc2)c(-c2ccccc2)o1)c1cc(Br)ccc1O [Compound No. 235],,81.8,
COc1ccc(-c2ccccc2)cc1NC(=O)c1cc(Cl)ccc1O [Compound No. 141],82.4,97.9,
CCNC(=O)c1sc(NC(=O)c2cc(Br)ccc2O)nc1-c1ccccc1 [Compound No. 221],51.9,84.0,
O=C(Nc1ccccc1)Nc1ccc(O)c(C(=O)Nc2cc(C(F)(F)F)cc(C(F)(F)F)c2)c1 [Compound No. 46],20.5,88.4,
O=C(Nc1cc(Cl)cc(Cl)c1)c1cc(I)ccc1O [Compound No. 127],85.4,97.1,
O=C(Nc1cc(C(F)(F)F)cc(C(F)(F)F)c1)c1cc(Br)cc(-c2ccccc2)c1O [Compound No. 259],>99.9,,
CCOC(=O)c1sc(NC(=O)c2cc(-n3cccc3)ccc2O)nc1-c1ccccc1 [Compound No. 229],74.0,90.1,
"O=C(Nc1cc(C(F)(F)F)cc(C(F)(F)F)c1)c1cc(-c2ccccn2)ccc1O [Compound No. 32, N-[3,5-Bis(trifluoromethyl)phenyl]-2-hydroxy-5-(pyridin-2-yl)benzamide]",,,inhibition at 1 µg/mL [3]: 90.4%; inhibition at 10 µg/mL [4]: 99%
O=C(O)Cc1sc(NC(=O)c2cc(Br)ccc2O)nc1-c1ccccc1 [Compound No. 210],,72.1,
COc1ccc(Oc2ccccc2)cc1NC(=O)c1cc(Cl)ccc1O [Compound No. 171],90.6,98.1,
"CC(C)(C)c1nc(NC(=O)c2cc(Br)ccc2O)sc1N1CCOCC1 [Compound No. 205, 5-Bromo-N-{4-[(1,1-dimethyl)ethyl]-5-morpholinothiazol-2-yl}-2-hydroxybenzamide]",,,inhibition at 1 µg/mL [3]: 87.8%; inhibition at 10 µg/mL [4]: 96.8%
CCC(C)(C)c1ccc(O)c(NC(=O)c2cc(Cl)ccc2O)c1 [Compound No. 177],87.8,99.4,
